Experimental data published in ChEMBL document CHEMBL1201862, “PubChem BioAssay data set” (2004).
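Growth conditions: 96-well plates. Treatment: test compound, 48 hours, 5 concentrations. Analysis: linear interpolation between bracketing concentrations; unreached endpoints set to highest concentration. The concentration for 50% growth inhibition is given as GI50.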 Activity calls are given as the source filed them. Rule as the data show it: active = GI50 up to about 1.1 µM and inactive = higher.

Assays:
Assay in all cases: growth of human tumour cells (NCI), 48 h
RPMI-8226 = tested on: RPMI-8226
NCI-H23 = tested on: NCI-H23
A498 = tested on: A498
NCI-H226 = tested on: NCI-H226
T47D = tested on: T47D
A549 = tested on: A549
MDA-N = tested on: MDA-N
NCI/ADR-RES = tested on: NCI/ADR-RES
ACHN = tested on: ACHN
HT-29 = tested on: HT-29
CAKI-1 = tested on: CAKI-1
SF-295 = tested on: SF-295
OVCAR-8 = tested on: OVCAR-8
IGROV-1 = tested on: IGROV-1
SW-620 = tested on: SW-620
HL-60 = tested on: HL-60
SNB-19 = tested on: SNB-19
SN12C = tested on: SN12C
M14 = tested on: M14
PC-3 = tested on: PC-3
Hs-578T = tested on: Hs-578T
OVCAR-3 = tested on: OVCAR-3
UACC-257 = tested on: UACC-257
786-0 = tested on: 786-0
MCF7 = tested on: MCF7
UO-31 = tested on: UO-31
SF-268 = tested on: SF-268
U-251 = tested on: U-251
MDA-MB-231 = tested on: MDA-MB-231
SNB-75 = tested on: SNB-75
SK-MEL-5 = tested on: SK-MEL-5
HOP-92 = tested on: HOP-92
EKVX = tested on: EKVX
HCC 2998 = tested on: HCC 2998
KM12 = tested on: KM12
SF-539 = tested on: SF-539
MOLT-4 = tested on: MOLT-4
DU-145 = tested on: DU-145
SK-OV-3 = tested on: SK-OV-3
COLO 205 = tested on: COLO 205
NCI-H460 = tested on: NCI-H460
LOX IMVI = tested on: LOX IMVI
Malme-3M = tested on: Malme-3M
SK-MEL-28 = tested on: SK-MEL-28
SK-MEL-2 = tested on: SK-MEL-2
CCRF-CEM = tested on: CCRF-CEM
NCI-H522 = tested on: NCI-H522
K562 = tested on: K562
UACC-62 = tested on: UACC-62
OVCAR-5 = tested on: OVCAR-5
TK-10 = tested on: TK-10
HCT-116 = tested on: HCT-116
OVCAR-4 = tested on: OVCAR-4
HCT-15 = tested on: HCT-15
BT-549 = tested on: BT-549
MDA-MB-435 = tested on: MDA-MB-435
HOP-62 = tested on: HOP-62
RXF 393 = tested on: RXF 393
SR = tested on: SR

Measured: GI50

O=C(Nc1ccc(Cl)cc1)C(=O)C1=C(O)c2ccccc2OC1
> 100 µM: HCT-15
active: Malme-3M 0.665 µM
inactive: RPMI-8226 > 100 µM | NCI-H23 > 100 µM | A498 > 100 µM | NCI-H226 > 100 µM | T47D > 100 µM | A549 > 100 µM | MDA-N > 100 µM | NCI/ADR-RES > 100 µM | ACHN > 100 µM | HT-29 > 100 µM | CAKI-1 > 100 µM | SF-295 > 100 µM | OVCAR-8 > 100 µM | IGROV-1 > 100 µM | SW-620 > 100 µM | HL-60 > 100 µM | SNB-19 > 100 µM | SN12C > 100 µM | M14 > 100 µM | PC-3 > 100 µM | Hs-578T > 100 µM | OVCAR-3 > 100 µM | UACC-257 > 100 µM | 786-0 > 100 µM | MCF7 > 100 µM | UO-31 > 100 µM | SF-268 > 100 µM | U-251 > 100 µM | MDA-MB-231 > 100 µM | SNB-75 33.1 µM | SK-MEL-5 > 100 µM | HOP-92 > 100 µM | EKVX > 100 µM | HCC 2998 > 100 µM | KM12 80.5 µM | SF-539 > 100 µM | MOLT-4 > 100 µM | DU-145 > 100 µM | SK-OV-3 > 100 µM | COLO 205 > 100 µM | NCI-H460 > 100 µM | LOX IMVI > 100 µM | SK-MEL-28 > 100 µM | SK-MEL-2 > 100 µM | CCRF-CEM > 100 µM | NCI-H522 > 100 µM | K562 > 100 µM | UACC-62 > 100 µM | OVCAR-5 > 100 µM | TK-10 > 100 µM | HCT-116 > 100 µM | OVCAR-4 > 100 µM | BT-549 > 100 µM | MDA-MB-435 > 100 µM

CN(C)CCCNc1ncnc2[nH]cnc12
> 100 µM: HCT-15
inactive: RPMI-8226 > 100 µM | NCI-H23 > 100 µM | A498 > 100 µM | NCI-H226 > 100 µM | T47D > 100 µM | A549 > 100 µM | MDA-N > 100 µM | NCI/ADR-RES > 100 µM | ACHN > 100 µM | HT-29 > 100 µM | CAKI-1 > 100 µM | SF-295 > 100 µM | OVCAR-8 > 100 µM | IGROV-1 > 100 µM | HOP-62 > 100 µM | SW-620 > 100 µM | SNB-19 > 100 µM | SN12C > 100 µM | M14 > 100 µM | PC-3 > 100 µM | Hs-578T > 100 µM | OVCAR-3 > 100 µM | 786-0 > 100 µM | MCF7 > 100 µM | UO-31 > 100 µM | SF-268 > 100 µM | U-251 > 100 µM | MDA-MB-231 > 100 µM | SK-MEL-5 > 100 µM | HOP-92 38.1 µM | EKVX > 100 µM | HCC 2998 > 100 µM | KM12 > 100 µM | MOLT-4 > 100 µM | DU-145 > 100 µM | SK-OV-3 > 100 µM | COLO 205 > 100 µM | NCI-H460 > 100 µM | LOX IMVI > 100 µM | Malme-3M > 100 µM | SK-MEL-28 > 100 µM | SK-MEL-2 > 100 µM | CCRF-CEM > 100 µM | NCI-H522 > 100 µM | K562 > 100 µM | UACC-62 > 100 µM | RXF 393 > 100 µM | OVCAR-5 > 100 µM | TK-10 > 100 µM | HCT-116 > 100 µM | OVCAR-4 > 100 µM | BT-549 > 100 µM | MDA-MB-435 > 100 µM

c1cc(-c2ncc(-c3ccc4c(c3)CCCO4)o2)ccn1
6.24 µM: HCT-15
inactive: RPMI-8226 8.47 µM | NCI-H23 14.7 µM | A498 10.6 µM | NCI-H226 21 µM | T47D 12.5 µM | A549 7.41 µM | MDA-N 2.48 µM | NCI/ADR-RES 3.94 µM | ACHN 22.3 µM | HT-29 7.4 µM | CAKI-1 20 µM | SF-295 16.6 µM | OVCAR-8 16.7 µM | IGROV-1 15.6 µM | HOP-62 18.1 µM | HL-60 2.42 µM | SNB-19 8.79 µM | SN12C 25.8 µM | M14 21.6 µM | PC-3 11.5 µM | Hs-578T 17.4 µM | OVCAR-3 11.4 µM | UACC-257 13.2 µM | 786-0 26.6 µM | MCF7 12.8 µM | UO-31 23.2 µM | SF-268 19.3 µM | U-251 11.2 µM | MDA-MB-231 17.7 µM | SNB-75 2.08 µM | SK-MEL-5 9.2 µM | HOP-92 21.6 µM | EKVX 18.6 µM | SF-539 9.38 µM | MOLT-4 3.06 µM | DU-145 12 µM | SK-OV-3 15.6 µM | COLO 205 5.42 µM | LOX IMVI 8.41 µM | Malme-3M 10.4 µM | SK-MEL-28 11.6 µM | SK-MEL-2 10.8 µM | CCRF-CEM 4.83 µM | NCI-H522 3.78 µM | K562 1.85 µM | UACC-62 15.6 µM | RXF 393 8.83 µM | OVCAR-5 42.2 µM | TK-10 7.43 µM | HCT-116 10.7 µM | OVCAR-4 18 µM | BT-549 13.2 µM | MDA-MB-435 2.36 µM

O=C(NC1=C(Cl)C(=O)c2ccccc2C1=O)c1ccc(F)cc1
0.535 µM: HCT-15
active: NCI-H226 1.1 µM | ACHN 0.938 µM | SW-620 0.776 µM | HL-60 0.341 µM | CCRF-CEM 0.802 µM | NCI-H522 0.456 µM | K562 0.91 µM | UACC-62 0.279 µM | HCT-116 0.455 µM
inactive: RPMI-8226 2.51 µM | NCI-H23 3.27 µM | SR 3.66 µM | T47D 1.9 µM | A549 5.37 µM | MDA-N 3.33 µM | NCI/ADR-RES 3.37 µM | HT-29 3.49 µM | SF-295 4.06 µM | OVCAR-8 5.47 µM | IGROV-1 1.7 µM | HOP-62 13.9 µM | SNB-19 5.18 µM | SN12C 3.41 µM | M14 2.6 µM | PC-3 1.13 µM | Hs-578T 8.91 µM | OVCAR-3 2.53 µM | UACC-257 1.98 µM | 786-0 10.8 µM | MCF7 3.62 µM | SF-268 7.57 µM | U-251 1.85 µM | MDA-MB-231 4.4 µM | SNB-75 5.83 µM | HOP-92 1.61 µM | EKVX 11.8 µM | HCC 2998 3.48 µM | KM12 3.08 µM | SF-539 4.4 µM | MOLT-4 2.24 µM | DU-145 4.68 µM | COLO 205 2.44 µM | NCI-H460 2.87 µM | Malme-3M 1.52 µM | SK-MEL-28 4.86 µM | RXF 393 1.25 µM | OVCAR-5 4.85 µM | TK-10 5.09 µM | OVCAR-4 6.67 µM | BT-549 3.46 µM | MDA-MB-435 4.45 µM

O=C(NNC(=S)Nc1cccc(Cl)c1)c1cc(-c2ccccc2)nc2ccccc12
inactive: RPMI-8226 6.68 µM | NCI-H23 13.8 µM | SR 23.9 µM | NCI-H226 20 µM | T47D 14.9 µM | A549 16.3 µM | MDA-N 18.3 µM | NCI/ADR-RES 20.4 µM | ACHN 16.3 µM | HT-29 20.4 µM | CAKI-1 19.3 µM | SF-295 11.7 µM | OVCAR-8 20.7 µM | IGROV-1 18.7 µM | HOP-62 16.3 µM | SW-620 14.6 µM | SNB-19 17 µM | SN12C 14.7 µM | M14 17.5 µM | PC-3 15.1 µM | Hs-578T 19.6 µM | OVCAR-3 15.1 µM | UACC-257 15.7 µM | 786-0 17.1 µM | MCF7 10 µM | UO-31 15.1 µM | SF-268 17 µM | U-251 12.3 µM | MDA-MB-231 13.1 µM | SNB-75 23.8 µM | SK-MEL-5 16.9 µM | HOP-92 12.5 µM | HCC 2998 12.6 µM | KM12 18.5 µM | SF-539 15.1 µM | MOLT-4 28 µM | DU-145 15.6 µM | SK-OV-3 19.9 µM | COLO 205 12.9 µM | NCI-H460 18.6 µM | Malme-3M 15.4 µM | SK-MEL-28 12.4 µM | SK-MEL-2 13.8 µM | CCRF-CEM 10.2 µM | NCI-H522 14.5 µM | K562 20.7 µM | UACC-62 13.4 µM | RXF 393 16.1 µM | OVCAR-5 15.4 µM | TK-10 15.4 µM | HCT-116 15.4 µM | OVCAR-4 14.3 µM | BT-549 19.4 µM | MDA-MB-435 16 µM
14.6 µM: HCT-15
